Experimental data published in patent publication EP2033635B1, “Use of phenylbutyric acid or salts thereof for treating pruritus” (Asan Laboratories Company (Cayman) Limited, priority 2007, dated 2009).

Tests used:
Format in all cases: cell-based
human IL-2 promoter = test: Chromatin immunoprecipitation (ChIP) assay of transcription-factor binding and acetyl H3 at the IL-2 promoter in Jurkat T cells; settings: 4-phenylbutyrate sodium 1 mM 24 hrs, then ionomycin 1 µM and PMA 10 ng/ml 6 hrs
Procedure: The induction of multiple cytokine expression depends on the coordinated activation of transcription factors, mostly including NFκB, NF-AT, and AP-1 (Sancho R, et al. J Immunol 172:2341-51, 2004; Li-Weber M, et al. Eur J Immunol 34 :1111-18, 2004). Because induction of cytokines is regulated mainly at the transcriptional level, chromatin immunoprecipitation (ChIP) analysis in Jurkat T cells was performed to determine the binding of NFκB, NF-AT, and AP-1 to IL-2 promoter. Jurkat T cells were nonstimulated or stimulated with ionomycin (1 µM) and PMA (10 ng/ml) for 6 hrs in the absence or presence of pre-incubation of 4-phenylbutyrate sodium (1 mM) for 24 hrs, then formaldehyde crosslinking between protein and DNA and ChIP using anti- NFκB, NF-AT, AP-1, Sp1 or acetyl H3 antibodies (Santa Cruz) were performed. PCR primers were designed to amplify the human IL-2 promoter: F 5'-[…] (-317 to -292 in the IL-2 promoter), R 5'-[…] (+33 to 58). PCR amplifications used a three-step protocol with 90°C (30 s) denaturing temperature, 59°C (45 s) primer annealing temperature, and 72°C (30 s) enzyme reaction temperature for 35 cycles.

Jurkat T cells [1] = test: Flow cytometry of cell proliferation, cytotoxicity, apoptosis and cell cycle in Jurkat T cells
Procedure: Jurkat T cells were treated in the presence of increasing concentrations of 4-phenylbutyrate, ionomycin, and/or phorbol 12-myristate 13-acetate (PMA) for 24-72 hr at 37°C.

Jurkat T cells [2] = test: Real-time PCR gene expression profiling (RT2 Profiler PCR Array Human Th1-Th2-Th3) in Jurkat T cells stimulated with PMA/ionomycin
Procedure: FIGs. […] Jurkat T cells were pre-incubated with phenylbutyrate (1 mM) for 24 hrs, and then stimulated with ionomycin (1 µM) and PMA (10 ng/ml) for 6 hrs. Using real-time PCR, the expression of a panel of genes related to helper T cells with or without T-cell stimulation and phenylbutyrate treatment was analyzed. The array includes cytokine genes representative of Th1, Th2 and Th3 cells, gene encoding transcriptional factors regulating the expression of cytokines as well as other markers of CD4+ T lymphocytes, genes involved in immune cell activation in the Th1 and Th2 type immune responses, and genes involved in the antimicrobial humoral response. Results are the mean ± SE of three determinations, expressed as the fold induction (observed experimental relative unit/basal control relative unit in the absence of any stimuli or treatment);
Jurkat T-cells were nonstimulated or stimulated with ionomycin (1 µM) and PMA (10 ng/ml) for 6 hrs in the absence or presence of pre-incubation of 4-phenylbutyrate sodium (1 mM) for 24 hrs, RNA was extracted and then RT-PCR was performed for profiling the expression of 84 genes related to Th1-Th2-Th3 responses shown in the gene table (FIG. 2).

[3] = 1 mM for 48 hrs, control versus treated cells, flow cytometry
[4] = PMA/ionomycin-induced Jurkat T-cell activation, result in words
[5] = phenylbutyrate 1 mM 24 hrs, then ionomycin 1 µM + PMA 10 ng/ml 6 hrs, mitogen stimulation alone 2.68

Structure (SMILES): O=C([O-])CCCc1ccccc1.[Na+] [Phenylbutyrate, 4-phenylbutyrate sodium]
- DNA binding of AP-1 to IL-2 promoter (human IL-2 promoter): decreases
- DNA binding of NF-AT to IL-2 promoter (human IL-2 promoter): decreases
- DNA binding of NFκB to IL-2 promoter (human IL-2 promoter): decreases
- chromatin structure, acetyl H3 status (human IL-2 promoter): altering acetyl H3 status
- apoptosis (Jurkat T cells [1]; [3]): no significant differences
- cell proliferation (Jurkat T cells [1]; [3]): no significant differences
- cytotoxicity (Jurkat T cells [1]; [3]): no significant differences
- entry of the cells into the S phase of the cell cycle (Jurkat T cells [1]; pre-treatment 1 mM for 24 hrs, 48 hrs after stimulation with ionomycin 1 µM plus PMA 10 ng/ml): almost completely prevented
- expression of SOCS1, a suppressor of cytokine signaling (Jurkat T cells [2]; [4]): upregulates more expression
- induction of Th1 and Th2 cytokines and related genes, T-cell activation markers, immune response genes (Jurkat T cells [2]; [4]): completely suppresses or significantly decreases
- fold induction of CCL7 (Jurkat T cells [2]; [5]): 1.04 fold
- fold induction of CCL11 (Jurkat T cells [2]; [5]): 0.98 fold
- fold induction of CCR5 (Jurkat T cells [2]; [5]): 0.98 fold
- fold induction of IL6 (Jurkat T cells [2]; [5]): 0.98 fold
- fold induction of IL6R (Jurkat T cells [2]; [5]): 0.98 fold
- fold induction of IL9 (Jurkat T cells [2]; [5]): 0.98 fold
- fold induction of IL12B (Jurkat T cells [2]; [5]): 0.98 fold
- fold induction of IL12RB2 (Jurkat T cells [2]; [5]): 0.98 fold
- fold induction of IL13 (Jurkat T cells [2]; [5]): 0.98 fold
- fold induction of IL13RA1 (Jurkat T cells [2]; [5]): 0.98 fold
- fold induction of IL18 (Jurkat T cells [2]; [5]): 0.98 fold
- fold induction of MAF (Jurkat T cells [2]; [5]): 0.98 fold
- fold induction of SFTPD (Jurkat T cells [2]; [5]): 0.98 fold
- fold induction of TLR4 (Jurkat T cells [2]; [5]): 0.98 fold
- fold induction of LAT (Jurkat T cells [2]; phenylbutyrate 1 mM 24 hrs, then ionomycin 1 µM + PMA 10 ng/ml 6 hrs, mitogen stimulation alone 3.12): 1.57 fold
- fold induction of CCR2 (Jurkat T cells [2]; phenylbutyrate 1 mM 24 hrs, then ionomycin 1 µM + PMA 10 ng/ml 6 hrs, mitogen stimulation alone 4.20): 0.84 fold
- fold induction of JAK2 (Jurkat T cells [2]; phenylbutyrate 1 mM 24 hrs, then ionomycin 1 µM + PMA 10 ng/ml 6 hrs, mitogen stimulation alone 4.72): 2.27 fold
- fold induction of SOCS1 (Jurkat T cells [2]; phenylbutyrate 1 mM 24 hrs, then ionomycin 1 µM + PMA 10 ng/ml 6 hrs, mitogen stimulation alone 4.82): 8.59 fold
- fold induction of IRF1 (Jurkat T cells [2]; phenylbutyrate 1 mM 24 hrs, then ionomycin 1 µM + PMA 10 ng/ml 6 hrs, mitogen stimulation alone 5.86): 1.7 fold
- fold induction of CCR4 (Jurkat T cells [2]; phenylbutyrate 1 mM 24 hrs, then ionomycin 1 µM + PMA 10 ng/ml 6 hrs, mitogen stimulation alone 7.41): 1.93 fold
- fold induction of STAT4 (Jurkat T cells [2]; phenylbutyrate 1 mM 24 hrs, then ionomycin 1 µM + PMA 10 ng/ml 6 hrs, mitogen stimulation alone 7.89): 3.32 fold
- fold induction of IL1R1 (Jurkat T cells [2]; phenylbutyrate 1 mM 24 hrs, then ionomycin 1 µM + PMA 10 ng/ml 6 hrs, mitogen stimulation alone 11.31): 3.92 fold
- fold induction of IL18R1 (Jurkat T cells [2]; phenylbutyrate 1 mM 24 hrs, then ionomycin 1 µM + PMA 10 ng/ml 6 hrs, mitogen stimulation alone 19.97): 0.98 fold
- fold induction of IRF4 (Jurkat T cells [2]; phenylbutyrate 1 mM 24 hrs, then ionomycin 1 µM + PMA 10 ng/ml 6 hrs, mitogen stimulation alone 26.17): 16.50 fold
- fold induction of TLR6 (Jurkat T cells [2]; phenylbutyrate 1 mM 24 hrs, then ionomycin 1 µM + PMA 10 ng/ml 6 hrs, mitogen stimulation alone 29.04): 10.43 fold
- fold induction of IL4R (Jurkat T cells [2]; phenylbutyrate 1 mM 24 hrs, then ionomycin 1 µM + PMA 10 ng/ml 6 hrs, mitogen stimulation alone 42.81): 9.53 fold
- fold induction of BCL3 (Jurkat T cells [2]; phenylbutyrate 1 mM 24 hrs, then ionomycin 1 µM + PMA 10 ng/ml 6 hrs, mitogen stimulation alone 58.08): 19.73 fold
- fold induction of CD69 (Jurkat T cells [2]; phenylbutyrate 1 mM 24 hrs, then ionomycin 1 µM + PMA 10 ng/ml 6 hrs, mitogen stimulation alone 87.43): 48.57 fold
- fold induction of TNFRSF9 (Jurkat T cells [2]; phenylbutyrate 1 mM 24 hrs, then ionomycin 1 µM + PMA 10 ng/ml 6 hrs, mitogen stimulation alone 89.26): 13.01 fold
- fold induction of IFN-gamma (Jurkat T cells [2]; phenylbutyrate 1 mM 24 hrs, then ionomycin 1 µM + PMA 10 ng/ml 6 hrs, mitogen stimulation alone 126.24): 99.18 fold
- fold induction of IL2RA (Jurkat T cells [2]; phenylbutyrate 1 mM 24 hrs, then ionomycin 1 µM + PMA 10 ng/ml 6 hrs, mitogen stimulation alone 151.17): 64.98 fold
- fold induction of CSF2 (Jurkat T cells [2]; phenylbutyrate 1 mM 24 hrs, then ionomycin 1 µM + PMA 10 ng/ml 6 hrs, mitogen stimulation alone 229.13): 88.77 fold
- fold induction of IL2 (Jurkat T cells [2]; phenylbutyrate 1 mM 24 hrs, then ionomycin 1 µM + PMA 10 ng/ml 6 hrs, mitogen stimulation alone 831.75): 304.86 fold
